Data on two compounds can be found in patent US5010097A, “Novel compounds” (Beecham Pharmaceuticals, priority 1987, dated 1991).

This assay concerns the target T1, human collagenase (human lung fibroblast cell line WI-38) (Homo sapiens, UniProt P03956).
T1 construct: purified from culture supernatants from the human lung fibroblast cell line, WI-38; endogenous in cells; host or cells: WI-38 human lung fibroblasts (enzyme purified from culture supernatants)
T1 sequence (P03956 100-469): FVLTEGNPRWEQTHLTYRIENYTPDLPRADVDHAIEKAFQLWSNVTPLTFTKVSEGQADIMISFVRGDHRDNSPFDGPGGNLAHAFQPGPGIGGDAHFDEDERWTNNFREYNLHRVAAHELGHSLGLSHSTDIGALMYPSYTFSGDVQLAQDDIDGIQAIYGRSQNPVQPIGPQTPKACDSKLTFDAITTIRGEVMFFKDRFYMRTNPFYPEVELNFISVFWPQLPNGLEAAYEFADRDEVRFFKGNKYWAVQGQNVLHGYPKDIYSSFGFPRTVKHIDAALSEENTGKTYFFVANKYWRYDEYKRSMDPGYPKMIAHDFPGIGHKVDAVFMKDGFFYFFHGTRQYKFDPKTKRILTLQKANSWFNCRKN
Briefly: Inhibition of Human Lung Fibroblast Collagenase (collagenase inhibitor assay, 14C-acetylated rat skin Type I collagen substrate). Format: biochemical. As to the method:
The test is performed essentially as in Cawston and Barrett Anal. Biochem. 99, 340-345 (1979). Compounds for testing are dissolved in methanol and added to purified human collagenase purified from culture supernatants from the human lung fibroblast cell line, WI-38, diluted in a suitable aqueous buffer. After a 5 min pre-incubation at 37° C., the assay tubes are cooled to 4° and ^14 C-acetylated rat skin Type I collagen is added. The assay tubes are incubated at 37° C. overnight. The ^14 C-collagen forms insoluble fibrils which are the substrate for the enzyme.
To terminate the assay, the assay tubes are spun at 12000 rpm for 25 min. Undigested ^14 C-collagen remains as insoluble fibrils and is pelleted, while digested ^14 C-collagen remains as soluble peptides in the supernatant. A sample of the supernatant is taken for liquid scintillation counting.
The activity of collagenase inhibitors (IC50 : 50% inhibitory concentration) is expressed as the concentration of compound that inhibits a known (standard) concentration of enzyme by 50%, or as the % inhibition of the collagen degradation caused by the known (standard) concentration of enzyme, at a stated concentration of the compound.

Structures are written as SMILES.

The IC50 is the concentration that inhibits the measured activity by half. A low value points to inhibition by little substance. As for `CNC(=O)[C@H](Cc1ccc(OC)cc1)NC(=O)C(CC(C)C)C(S)CC(C)=O` (single isomer, unassigned) [2 A], the IC50 (purified human collagenase from WI-38 culture supernatants, 14C-collagen fibrils, 5 min pre-incubation at 37 °C, then 37 °C overnight) stood at 14 nM.

Regarding `CNC(=O)[C@H](Cc1ccc(OC)cc1)NC(=O)C(CC(C)C)C(S)CC(C)=O` (some centres unmarked) [2 C/D], where the note is “at 1000 (column head nm), purified human collagenase from WI-38, 37 °C overnight”, the “Inhibition (% inhibition of the collagen degradation)” value came out at 58%.
